# Measurements: patent US8889370B2, “Method of determining inhibitors of coagulation” (Siemens Healthcare Diagnostics Products GmbH, priority 2010, dated 2014)
# Like-named read-outs stand apart in the source and are kept apart here.
# Molecular target: T1, bovine thrombin (Bos taurus, UniProt P00735)
# T1 construct: a lyophilized thrombin reagent consisting of bovine thrombin; purchased Siemens Healthcare Diagnostics (hirudin activity assay, thrombin reagent)
# Assay: Determination of the thrombin binding constant (Ki) of peptide aldehyde ligands, chromogenic assay with hirudin activity assay reagents, Dixon plot
# Assay type: biochemical
# Method: The kinetic data of the peptide aldehyde ligands were determined in chromogenic assay formats by measuring the rate of hydrolysis of chromogenic peptide substrates which compete with the peptide aldehyde ligands for binding to the active site of the particular enzyme, at various substrate concentrations and peptide aldehyde-ligand concentrations. The binding constant (Ki) was determined by a known method (Dixon, M., 1953, Biochem J, 55, 170-171).
# The thrombin binding constant was determined using the reagents of the hirudin activity assay from Siemens Healthcare Diagnostics. The hirudin activity assay comprises a lyophilized thrombin reagent consisting of bovine thrombin, a heparin inhibitor and aprotinin, a lyophilized chromogenic substrate reagent with a concentration of 4 mmol/l tos-Gly-Pro-Arg-ANBA-IPA (tosylglycyl-L-propyl-arginyl-5-amino-2-nitrobenzoyliso-propylamide) after reconstitution. The thrombin reagent was reconstituted in buffer solution (trishydroxymethylamino-methane, NaCl, pH 8.2). Dilutions of the substrate reagent were prepared with deionized water. The peptide aldehyde ligands prepared according to example 1 were dissolved in water and used as sample. The B-r-G-R—H ligand was used in a concentration range from 26.1 to 0.815 μM. The B-f-P—R—H ligand was used in a concentration range from 26.1 to 0 μM. The assays were carried out automatically in a BCS® XP coagulation analyzer (Siemens Healthcare Diagnostics, Marburg, Germany).
# A reaction mix was mixed together as follows:
# 30 μl of sample (peptide aldehyde ligand B-r-G-R—H or B-f-P—R—H),
# 150 μl of thrombin reagent,
# 50 μl of chromogenic substrate reagent (tos-Gly-Pro-Arg-ABNA-IPA).
# The reaction rate in mE/min was determined on the basis of the increase in optical density of the reaction mix at a wavelength of 405 nm. For this, the optical density of the reaction mixes was determined in time intervals of from 15 to 40 seconds for the B-f-P—R—H peptide aldehyde ligand or 5-16 seconds for the B-r-G-R—H peptide aldehyde ligand.
# Reversibly and irreversibly binding ligands can be distinguished by their reaction kinetics. Plotting 1/v, where v is the reaction rate, as a function of the ligand concentration (i) at a constant concentration (S) of a cleavable substrate produces a line. When using two or more different substrate concentrations (S1, S2 . . . SN), said lines intersect at a single point. The x axis value of this point corresponds to −Ki, with Ki corresponding to the binding constant, see, for example, Klebe, G., Wirkstoffdesign, 2nd edition, Spektrum Akademischer Verlag, Heidelberg, Germany, 2009, pages 52-62 and Dixon, M., 1953, Biochem J, 55, 170-171. With an irreversible inhibition, the curves meet at a single point on the x axis, which again corresponds to −Ki.
smiles,measurement,setting,value
"N=C(N)NCCC[C@@H](C=O)NC(=O)[C@@H]1CCCN1C(=O)[C@@H](Cc1ccccc1)NC(=O)CCC(=O)NCCCOCCOCCOCCCNC(=O)CCCC[C@@H]1SC[C@@H]2NC(=O)N[C@@H]21 [B-f-P-R-H, biotinyl-Ttds-D-Phe-Pro-Arg-H]",1/Reaction rate,"CB-f-P-R-H 0.02038 μM, Csubstrate = 0.5 mM, not in the linear region, excluded from regression",1.869 min/E
same,1/Reaction rate,"CB-f-P-R-H 0.02038 μM, Csubstrate = 2 mM",0.4138 min/E
same,1/Reaction rate,"CB-f-P-R-H 0.02038 μM, Csubstrate = 4 mM",0.3846 min/E
same,1/Reaction rate,"CB-f-P-R-H 0.04076 μM, Csubstrate = 0.5 mM, not in the linear region, excluded from regression",1.747 min/E
same,1/Reaction rate,"CB-f-P-R-H 0.04076 μM, Csubstrate = 2 mM",0.4247 min/E
same,1/Reaction rate,"CB-f-P-R-H 0.04076 μM, Csubstrate = 4 mM",0.393 min/E
same,1/Reaction rate,"CB-f-P-R-H 0.08152 μM, Csubstrate = 0.5 mM",1.565 min/E
same,1/Reaction rate,"CB-f-P-R-H 0.08152 μM, Csubstrate = 2 mM",0.4594 min/E
same,1/Reaction rate,"CB-f-P-R-H 0.08152 μM, Csubstrate = 4 mM",0.4143 min/E
same,1/Reaction rate,"CB-f-P-R-H 0.16304 μM, Csubstrate = 0.5 mM",1.711 min/E
same,1/Reaction rate,"CB-f-P-R-H 0.16304 μM, Csubstrate = 2 mM",0.521 min/E
same,1/Reaction rate,"CB-f-P-R-H 0.16304 μM, Csubstrate = 4 mM",0.4395 min/E
same,1/Reaction rate,"CB-f-P-R-H 0.20380 μM, Csubstrate = 0.5 mM",1.638 min/E
same,1/Reaction rate,"CB-f-P-R-H 0.20380 μM, Csubstrate = 2 mM",0.5061 min/E
same,1/Reaction rate,"CB-f-P-R-H 0.20380 μM, Csubstrate = 4 mM",0.4298 min/E
same,1/Reaction rate,"CB-f-P-R-H 0.32609 μM, Csubstrate = 0.5 mM",2.382 min/E
same,1/Reaction rate,"CB-f-P-R-H 0.32609 μM, Csubstrate = 2 mM",0.6613 min/E
same,1/Reaction rate,"CB-f-P-R-H 0.32609 μM, Csubstrate = 4 mM",0.5012 min/E
same,1/Reaction rate,"CB-f-P-R-H 0.40761 μM, Csubstrate = 0.5 mM",2.645 min/E
same,1/Reaction rate,"CB-f-P-R-H 0.40761 μM, Csubstrate = 2 mM",0.7008 min/E
same,1/Reaction rate,"CB-f-P-R-H 0.40761 μM, Csubstrate = 4 mM",0.5334 min/E
same,1/Reaction rate,"CB-f-P-R-H 0.65217 μM, Csubstrate = 0.5 mM",4.162 min/E
same,1/Reaction rate,"CB-f-P-R-H 0.65217 μM, Csubstrate = 2 mM",1.029 min/E
same,1/Reaction rate,"CB-f-P-R-H 0.65217 μM, Csubstrate = 4 mM",0.6737 min/E
same,1/Reaction rate,"CB-f-P-R-H 0.81522 μM, Csubstrate = 0.5 mM",4.775 min/E
same,1/Reaction rate,"CB-f-P-R-H 0.81522 μM, Csubstrate = 2 mM",1.169 min/E
same,1/Reaction rate,"CB-f-P-R-H 0.81522 μM, Csubstrate = 4 mM",0.7274 min/E
same,1/Reaction rate,"CB-f-P-R-H 1.30435 μM, Csubstrate = 0.5 mM",7.175 min/E
same,1/Reaction rate,"CB-f-P-R-H 1.30435 μM, Csubstrate = 2 mM",1.793 min/E
same,1/Reaction rate,"CB-f-P-R-H 1.30435 μM, Csubstrate = 4 mM",0.9974 min/E
same,1/Reaction rate,"CB-f-P-R-H 1.63043 μM, Csubstrate = 0.5 mM",8.491 min/E
same,1/Reaction rate,"CB-f-P-R-H 1.63043 μM, Csubstrate = 2 mM",2.164 min/E
same,1/Reaction rate,"CB-f-P-R-H 1.63043 μM, Csubstrate = 4 mM",1.183 min/E
same,1/Reaction rate,"CB-f-P-R-H 2.60870 μM, Csubstrate = 0.5 mM",13.19 min/E
same,1/Reaction rate,"CB-f-P-R-H 2.60870 μM, Csubstrate = 2 mM",3.37 min/E
same,1/Reaction rate,"CB-f-P-R-H 2.60870 μM, Csubstrate = 4 mM",1.775 min/E
same,1/Reaction rate,"CB-f-P-R-H 3.26087 μM, Csubstrate = 0.5 mM",15.77 min/E
same,1/Reaction rate,"CB-f-P-R-H 3.26087 μM, Csubstrate = 2 mM",4.026 min/E
same,1/Reaction rate,"CB-f-P-R-H 3.26087 μM, Csubstrate = 4 mM",2.13 min/E
same,1/Reaction rate,"CB-f-P-R-H 5.21739 μM, Csubstrate = 0.5 mM",24.76 min/E
same,1/Reaction rate,"CB-f-P-R-H 5.21739 μM, Csubstrate = 2 mM",6.165 min/E
same,1/Reaction rate,"CB-f-P-R-H 5.21739 μM, Csubstrate = 4 mM",3.251 min/E
same,1/Reaction rate,"CB-f-P-R-H 6.52174 μM, Csubstrate = 0.5 mM",32.28 min/E
same,1/Reaction rate,"CB-f-P-R-H 6.52174 μM, Csubstrate = 2 mM",7.856 min/E
same,1/Reaction rate,"CB-f-P-R-H 6.52174 μM, Csubstrate = 4 mM",4.089 min/E
same,1/Reaction rate,"CB-f-P-R-H 9.78261 μM, Csubstrate = 0.5 mM",43.9 min/E
same,1/Reaction rate,"CB-f-P-R-H 9.78261 μM, Csubstrate = 2 mM",11.18 min/E
same,1/Reaction rate,"CB-f-P-R-H 9.78261 μM, Csubstrate = 4 mM",5.843 min/E
same,1/Reaction rate,"CB-f-P-R-H 13.04348 μM, Csubstrate = 0.5 mM",59.12 min/E
same,1/Reaction rate,"CB-f-P-R-H 13.04348 μM, Csubstrate = 2 mM",14.43 min/E
same,1/Reaction rate,"CB-f-P-R-H 13.04348 μM, Csubstrate = 4 mM",7.611 min/E
same,1/Reaction rate,"CB-f-P-R-H 16.30435 μM, Csubstrate = 0.5 mM",74.55 min/E
same,1/Reaction rate,"CB-f-P-R-H 16.30435 μM, Csubstrate = 2 mM",18.09 min/E
same,1/Reaction rate,"CB-f-P-R-H 16.30435 μM, Csubstrate = 4 mM",9.302 min/E
same,1/Reaction rate,"CB-f-P-R-H 26.08696 μM, Csubstrate = 0.5 mM",121.7 min/E
same,1/Reaction rate,"CB-f-P-R-H 26.08696 μM, Csubstrate = 2 mM",28.41 min/E
same,1/Reaction rate,"CB-f-P-R-H 26.08696 μM, Csubstrate = 4 mM",14.59 min/E
same,Intersect of regression curve 1/reaction rate vs ligand concentration,Csubstrate 0.5 mM,0.9175 min/E
same,Slope of regression curve 1/reaction rate vs ligand concentration,Csubstrate 0.5 mM,4.5718 min/E μM
same,Intersect of regression curve 1/reaction rate vs ligand concentration,Csubstrate 2 mM,0.04059 min/E
same,Slope of regression curve 1/reaction rate vs ligand concentration,Csubstrate 2 mM,1.0812 min/E μM
same,Intersect of regression curve 1/reaction rate vs ligand concentration,Csubstrate 4 mM,0.3497 min/E
same,Slope of regression curve 1/reaction rate vs ligand concentration,Csubstrate 4 mM,0.5500 min/E μM
same,Ki,"average of three Ki values, read-out: KiM average thrombin binding constant",131 nM
same,Ki,"intersection of regression curves Csubstrate 2 and 0.5 mM, read-out: Ki2&3 thrombin binding constant",147 nM
same,Ki,"intersection of regression curves Csubstrate 4 and 0.5 mM, read-out: Ki1&3 thrombin binding constant",141 nM
same,Ki,"intersection of regression curves Csubstrate 4 and 2 mM, read-out: Ki1&2 thrombin binding constant",106 nM
same,binding of the peptide aldehyde with thrombin (reversible or irreversible),intersections of regression curves not on the x axis,reversible
